{"source": "paper PMC11879040", "about": "“Advancing systemic toxicity risk assessment: Evaluation of a NAM-based toolbox approach” (Toxicological Sciences, 2024)", "key": {"[1]": {"conditions": "cited from earlier work"}, "[2]": {"test_system": "Gamma-aminobutyric acid receptor subunit alpha-1 BZD site, GABRA1A (r)", "type": "binding, rat", "conditions": "IPP screening at 100 uM; control diazepam"}, "Tubulin (r)": {"test_system": "Tubulin (r)", "test": "IPP Tubulin binding", "parameters": "species or system rat", "conditions": "100 uM; ligand/control Colchicine"}, "[3]": {"test_system": "Potassium Voltage-Gated Channel Kv non-selective, KCNQ1 (r)", "test": "IPP KCNQ1 binding (antagonist radioligand)", "parameters": "species or system rat", "conditions": "IPP screening at 100 uM; control α-dendrotoxin"}, "[4]": {"biological_target": "Voltage-dependent L-type Ca2+ channel (dihydropyridine site), CACNA1C (r) (Rattus norvegicus, UniProt P22002)", "sequence (P22002 whole entry)": "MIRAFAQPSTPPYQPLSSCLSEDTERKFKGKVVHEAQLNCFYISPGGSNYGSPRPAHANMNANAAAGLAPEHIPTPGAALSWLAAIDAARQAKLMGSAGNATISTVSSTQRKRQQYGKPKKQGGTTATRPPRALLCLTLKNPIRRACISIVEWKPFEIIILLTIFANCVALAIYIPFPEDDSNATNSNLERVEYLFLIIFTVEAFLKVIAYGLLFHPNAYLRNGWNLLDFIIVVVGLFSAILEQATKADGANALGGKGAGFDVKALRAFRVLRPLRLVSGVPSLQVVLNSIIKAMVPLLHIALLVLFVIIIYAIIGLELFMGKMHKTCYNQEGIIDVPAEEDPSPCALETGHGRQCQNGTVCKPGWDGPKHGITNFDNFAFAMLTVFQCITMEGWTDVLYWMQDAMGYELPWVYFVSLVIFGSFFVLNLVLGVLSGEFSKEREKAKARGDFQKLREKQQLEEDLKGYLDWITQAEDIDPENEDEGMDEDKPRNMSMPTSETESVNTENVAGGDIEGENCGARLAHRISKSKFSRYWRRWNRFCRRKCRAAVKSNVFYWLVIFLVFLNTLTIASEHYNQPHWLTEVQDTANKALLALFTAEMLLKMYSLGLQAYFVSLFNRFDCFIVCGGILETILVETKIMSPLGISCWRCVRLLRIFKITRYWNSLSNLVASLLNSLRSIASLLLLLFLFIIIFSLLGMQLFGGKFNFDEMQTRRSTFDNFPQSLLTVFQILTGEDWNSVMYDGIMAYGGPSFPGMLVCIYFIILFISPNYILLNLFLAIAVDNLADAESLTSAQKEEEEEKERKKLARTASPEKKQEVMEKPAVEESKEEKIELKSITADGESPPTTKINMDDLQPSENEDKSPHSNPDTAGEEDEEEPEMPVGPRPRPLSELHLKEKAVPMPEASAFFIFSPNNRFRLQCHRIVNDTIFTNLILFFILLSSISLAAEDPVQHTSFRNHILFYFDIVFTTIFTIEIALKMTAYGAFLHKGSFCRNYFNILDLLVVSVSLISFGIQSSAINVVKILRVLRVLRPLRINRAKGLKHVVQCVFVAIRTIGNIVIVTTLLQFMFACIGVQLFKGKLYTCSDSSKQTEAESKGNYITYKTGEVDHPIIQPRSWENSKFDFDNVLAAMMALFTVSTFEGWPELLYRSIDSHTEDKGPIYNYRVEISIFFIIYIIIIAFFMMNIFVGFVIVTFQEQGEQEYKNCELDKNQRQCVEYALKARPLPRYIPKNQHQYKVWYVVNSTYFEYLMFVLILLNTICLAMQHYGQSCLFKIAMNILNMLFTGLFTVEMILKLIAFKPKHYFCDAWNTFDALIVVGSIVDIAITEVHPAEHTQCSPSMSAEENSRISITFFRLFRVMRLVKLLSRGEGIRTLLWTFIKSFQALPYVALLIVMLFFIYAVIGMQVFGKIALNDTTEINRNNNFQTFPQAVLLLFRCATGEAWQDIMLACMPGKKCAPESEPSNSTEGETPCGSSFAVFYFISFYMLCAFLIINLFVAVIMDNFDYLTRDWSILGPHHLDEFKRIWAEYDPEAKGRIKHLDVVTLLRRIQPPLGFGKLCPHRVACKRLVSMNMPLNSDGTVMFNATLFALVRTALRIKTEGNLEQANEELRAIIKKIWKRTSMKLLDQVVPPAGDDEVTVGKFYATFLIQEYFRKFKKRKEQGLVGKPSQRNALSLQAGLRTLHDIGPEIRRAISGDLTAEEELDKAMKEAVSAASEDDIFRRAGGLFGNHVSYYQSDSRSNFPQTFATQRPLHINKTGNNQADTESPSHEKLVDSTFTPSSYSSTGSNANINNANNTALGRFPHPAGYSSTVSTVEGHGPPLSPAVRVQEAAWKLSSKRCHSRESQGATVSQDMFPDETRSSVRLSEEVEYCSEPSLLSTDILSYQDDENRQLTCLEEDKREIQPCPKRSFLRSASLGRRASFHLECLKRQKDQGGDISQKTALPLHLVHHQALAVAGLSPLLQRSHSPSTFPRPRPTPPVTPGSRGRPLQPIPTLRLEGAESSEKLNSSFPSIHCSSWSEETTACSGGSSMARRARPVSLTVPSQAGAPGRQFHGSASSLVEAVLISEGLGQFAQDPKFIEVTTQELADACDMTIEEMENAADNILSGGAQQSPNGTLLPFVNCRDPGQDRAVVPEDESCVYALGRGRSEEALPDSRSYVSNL", "type": "binding"}, "HepG2 cells": {"test_system": "HepG2 cells", "test": "High-throughput transcriptomics (HTTr, TempO-Seq), HepG2, 24 h", "type": "cell-based, human", "conditions": "BIFROST gene level PoD", "protocol": "HepG2, HepaRG, and MCF7 cells were treated with each compound for 24 h across a dose range of 7 concentrations and lysed using TempO-Seq lysis buffer (BioSpyder Technologies, proprietary kit, see [Middleton et al. 2022] for method details). Sequencing was performed using TempO-Seq (BioClavis) version 2 of the human whole transcriptome panel and analyzed as described previously in Middleton et al."}, "[5]": {"test_system": "Sodium channel protein type 5 subunit alpha (site 2), SCN5A (r)", "type": "binding, rat"}, "[6]": {"biological_target": "T1, Adenosine receptor A2a, ADORA2A (h) (Homo sapiens, UniProt P29274)", "T1 construct": "purchased Eurofins Cerep (SafetyScreen44-based IPP panel)", "T1 sequence (P29274 whole entry)": "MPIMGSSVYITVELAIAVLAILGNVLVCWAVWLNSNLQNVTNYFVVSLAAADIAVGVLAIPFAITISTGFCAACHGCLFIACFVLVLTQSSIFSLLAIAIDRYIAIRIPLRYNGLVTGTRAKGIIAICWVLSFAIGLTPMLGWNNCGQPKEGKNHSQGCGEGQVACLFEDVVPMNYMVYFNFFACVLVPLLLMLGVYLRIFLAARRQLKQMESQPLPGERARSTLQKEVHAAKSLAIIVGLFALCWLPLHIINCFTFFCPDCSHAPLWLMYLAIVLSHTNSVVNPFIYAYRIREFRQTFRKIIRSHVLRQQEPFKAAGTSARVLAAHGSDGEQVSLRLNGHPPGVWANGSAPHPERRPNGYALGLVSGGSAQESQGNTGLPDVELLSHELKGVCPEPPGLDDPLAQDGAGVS", "test": "IPP ADORA2A binding (agonist radioligand)", "conditions": "IPP screening at 100 uM; control NECA"}, "[7]": {"biological_target": "Dopamine receptor D2, DRD2 (h) (Homo sapiens, UniProt P14416)", "sequence (P14416 whole entry)": "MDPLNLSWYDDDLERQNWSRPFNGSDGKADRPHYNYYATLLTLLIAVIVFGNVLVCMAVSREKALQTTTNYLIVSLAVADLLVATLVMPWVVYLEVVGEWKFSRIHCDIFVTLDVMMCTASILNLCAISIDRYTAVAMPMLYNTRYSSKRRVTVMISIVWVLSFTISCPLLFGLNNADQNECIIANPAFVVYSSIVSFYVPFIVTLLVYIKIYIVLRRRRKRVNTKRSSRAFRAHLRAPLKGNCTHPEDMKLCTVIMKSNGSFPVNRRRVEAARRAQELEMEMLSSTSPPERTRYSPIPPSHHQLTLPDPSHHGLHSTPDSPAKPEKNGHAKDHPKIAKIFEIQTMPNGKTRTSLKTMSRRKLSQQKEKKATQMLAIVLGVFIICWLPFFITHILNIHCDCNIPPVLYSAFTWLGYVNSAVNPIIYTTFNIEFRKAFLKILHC", "test": "biochemical"}, "[8]": {"conditions": "cited from earlier work", "remark": "listed apart in the source"}, "[9]": {"test": "Assignment of risk classifications to benchmark chemical-exposure scenarios", "conditions": "from table S1"}, "[10]": {"test_system": "Thyroid hormone receptor alpha, THRA (h)", "test": "IPP THRA coactivator recruitment (agonist)", "type": "biochemical, human", "conditions": "100 uM; agonist; T3; * denotes assay interference (2-Amino-6-chloro-4-nitrophenol, HC Red 3)"}, "[11]": {"conditions": "IV 10 mg infusion (8.9 mg), 6 healthy, calibration, ref Ross-Lee et al. 1981"}, "[12]": {"conditions": "IV 20 mg infusion (15.4 mg base), 8 healthy, validation, ref Magueur et al. 1991"}, "[13]": {"conditions": "Oral 10 mg tablet (8.9 mg), fasted, 6 healthy, calibration, ref Ross-Lee et al. 1981"}, "[14]": {"conditions": "Oral 10 mg tablet (8.9 mg), fasted, 8 healthy male, validation, ref Bateman et al. 1980"}, "[15]": {"conditions": "Oral 20 mg tablet (17 mg base), fasted, 8 healthy, validation, ref Magueur et al. 1991"}, "[16]": {"conditions": "Oral 20 mg tablet (17.8 mg), fasted, 8 healthy male, validation, ref Bateman et al. 1980"}}, "note": "Like-named read-outs stand apart in the source and are kept apart here."}
{"smiles": "CCN(CC)CCNC(=O)c1cc(Cl)c(N)cc1OC", "note": "[Metoclopramide, 4-Amino-5-chloro-N-[2-(diethylamino)ethyl]-2-methoxybenzamide]", "values": [{"measurement": "Intrinsic Liver Clearance", "setting": "[1]; PBK level L2, taken or scaled from references (median where several), ref [6],[7],[10],[19]", "result": 33.81, "unit": "L/h"}, {"measurement": "Intrinsic Liver Clearance", "setting": "[1]; PBK level L3, scaled from references (median where several), ref [7],[10],[19]", "result": 33.81, "unit": "L/h"}, {"measurement": "Specific binding", "setting": "[2]", "result": 29.4, "unit": "%"}, {"measurement": "IPP screening %, Specific binding", "setting": "Tubulin (r)", "result": 0.0, "unit": "%"}, {"measurement": "Specific binding", "setting": "[3]", "result": -1.0, "unit": "%"}, {"measurement": "Specific binding", "setting": "[4]", "result": -18.6, "unit": "%"}, {"measurement": "next lowest PoD, HepG2 HTTr", "setting": "HepG2 cells", "result": 16, "unit": "µM"}, {"measurement": "Specific binding", "setting": "[5]", "result": 40.1, "unit": "%"}, {"measurement": "Specific binding", "setting": "[6]", "result": 6.5, "unit": "%"}, {"measurement": "IC50", "setting": "[7]", "result": 46, "unit": "nM"}, {"measurement": "Reported AUC0-t", "setting": "[8]; [11]", "result": 325.9, "unit": "ng·h/mL"}, {"measurement": "Reported cmax", "setting": "[8]; [11]", "result": 129.1, "unit": "ng/mL"}, {"measurement": "Reported tmax", "setting": "[8]; [11]", "result": 4.56, "unit": "min"}, {"measurement": "Reported AUC0-t", "setting": "[8]; [12]", "result": 968.3, "unit": "ng·h/mL"}, {"measurement": "Reported cmax", "setting": "[8]; [12]", "result": 201.3, "unit": "ng/mL"}, {"measurement": "Reported tmax", "setting": "[8]; [12]", "result": 2.52, "unit": "min"}, {"measurement": "Reported AUC0-t", "setting": "[8]; [13]", "result": 247.7, "unit": "ng·h/mL"}, {"measurement": "Reported cmax", "setting": "[8]; [13]", "result": 51.06, "unit": "ng/mL"}, {"measurement": "Reported tmax", "setting": "[8]; [13]", "result": 44.8, "unit": "min"}, {"measurement": "Reported AUC0-t", "setting": "[8]; [14]", "result": 142.87, "unit": "ng·h/mL"}, {"measurement": "Reported cmax", "setting": "[8]; [14]", "result": 39.948, "unit": "ng/mL"}, {"measurement": "Reported tmax", "setting": "[8]; [14]", "result": 46.6, "unit": "min"}, {"measurement": "Reported AUC0-t", "setting": "[8]; [15]", "result": 604, "unit": "ng·h/mL"}, {"measurement": "Reported cmax", "setting": "[8]; [15]", "result": 55.85, "unit": "ng/mL"}, {"measurement": "Reported tmax", "setting": "[8]; [15]", "result": 121, "unit": "min"}, {"measurement": "Reported AUC0-t", "setting": "[8]; [16]", "result": 359.8, "unit": "ng·h/mL"}, {"measurement": "Reported cmax", "setting": "[8]; [16]", "result": 75.62, "unit": "ng/mL"}, {"measurement": "Reported tmax", "setting": "[8]; [16]", "result": 62.22, "unit": "min"}, {"measurement": "risk", "setting": "[9]; IV, High therapeutic, 30 mg/day, Exp3", "result": 1}, {"measurement": "risk", "setting": "[9]; Oral, High therapeutic, 30 mg/day, Tablet, Exp2", "result": 1}, {"measurement": "risk", "setting": "[9]; Oral, Low therapeutic, 10 mg/day, Tablet, Exp1", "result": 1}, {"measurement": "IPP screening %, Coactivator recruitment", "setting": "[10]", "result": 1.0, "unit": "%"}]}
